Experimental data: ChEMBL document CHEMBL1141643, “Synthesis and SAR of novel 1,1-dialkyl-2(1H)-naphthalenones as potent HCV polymerase inhibitors” (Bioorg Med Chem Lett, 2008)

Legend:
[1] = Inhibition of HCV 1a RNA dependent RNA polymerase; parameters: species or system Hepacivirus hominis
Hepatitis C virus = assay: Inhibition of HCV 1a replication by cell based assay; type: functional, organism-based, Hepacivirus hominis

Compound | IC50 [1] | EC50 (Hepatitis C virus)
CCCC1(C)C(=O)C(C2=NS(=O)(=O)c3cc(NS(C)(=O)=O)ccc3N2)=C(O)c2ccccc21 (stereo not given) | 20 nM | –
CC(C)(C)CCC1(C)C(=O)C(C2=NS(=O)(=O)c3cc(NS(C)(=O)=O)ccc3N2)=C(O)c2ccccc21 (stereo not given) | 10 nM | 8 nM
CCCCC1(C)C(=O)C(C2=NS(=O)(=O)c3cc(NS(C)(=O)=O)ccc3N2)=C(O)c2ccccc21 (stereo not given) | 15 nM | 52 nM
CCCC1(CCC)C(=O)C(C2=NS(=O)(=O)c3cc(NS(C)(=O)=O)ccc3N2)=C(O)c2ccccc21 | 99 nM | 603 nM
CC1(CCCC2CCCCC2)C(=O)C(C2=NS(=O)(=O)c3cc(NS(C)(=O)=O)ccc3N2)=C(O)c2ccccc21 (stereo not given) | 791 nM | –
CCC1(CCC(C)C)C(=O)C(C2=NS(=O)(=O)c3cc(NS(C)(=O)=O)ccc3N2)=C(O)c2ccccc21 (stereo not given) | 17 nM | 49 nM
CC1(CC2CCCCC2)C(=O)C(C2=NS(=O)(=O)c3cc(NS(C)(=O)=O)ccc3N2)=C(O)c2ccccc21 (stereo not given) | 13 nM | 121 nM
CC(C)CCC1(C)C(=O)C(C2=NS(=O)(=O)c3cc(NS(C)(=O)=O)ccc3N2)=C(O)c2ccccc21 (stereo not given) | 7 nM | 38 nM
CC(C)(C)CCCCC1(C)C(=O)C(C2=NS(=O)(=O)c3cc(NS(C)(=O)=O)ccc3N2)=C(O)c2ccccc21 (stereo not given) | 138 nM | –
